The test system of one assay is IL-4. Nature of the assay: IL-4 production in PHA-stimulated PBMC cultures. The format is cell-based, human. On the set-up: % Inhibition of IL-4 production: concentration or dose not given beside the values. The method, then: Production of autocrine growth factors (IL-2, IL-4, IL-10 and Interferon-gamma) in PHA-stimulated human PBMC cultures
Culture supernatants were collected at the times indicated and frozen at -20° C. At the end of 96 hr., all supernatants were assayed by enzyme immunoassay for the presence of the cytokines: interleukin-2, -4, -10 and interferon (IFN)-gamma. Results were expressed in pg/mL concentration of cytokine and % inhibition of cytokine production.

For assay [1], the system named is tetanus toxoid-specific T-cell proliferation (PBMC). The assay can be described thus: cells. The format is cell-based, human.
For assay [2], the system named is Protein Kinase-C-Mediated T-cell Proliferation (PBMC). The assay can be described thus: PK-C-mediated T-cell proliferation (PMA + A23187). The format is cell-based, human. The settings on record: PMA 1.25 ng/mL + A23187 0.25 μM. As for the experimental part:
Determination of the effect of HE-33 on PK-C-mediated signaling pathway
PBMC of a healthy volunteer were cultured in 96-well microtiter plates at 2×10^5 cells/well. […] Forskolin is an agent well known to increase intacellular cAMP levels by activating adenylate cyclase. Cultures were incubated for 3 days at 37° C. in a 5% CO2 incubator. Proliferative response was determined by incorporation of ^3 H-thymidine.. The results were expressed in CPM and % inhibition of proliferation (Table 7).

Assay [3] deals with skin graft rejection (Balb/C tail skin on C57BL/6 mice). Nature of the assay: Skin graft survival in mice. The format is in vivo, mouse. The method, then:
Effect of HE-33 on Skin-Grafting
Balb/C and C57BL/6 mice are genetically histoincompatible in that Balb/C is of haplotype H-2^d whereas C57BL/6 is of haplotype H-2^b. The surgical procedure used in these experiments was performed according to the procedures reported by Matriano, J. E. et al. (J. Immunol., 1996, 156:4114-4119).
Mice in groups 4 and 5 were orally administered HE-33 daily from 2 days prior to grafting. Rejection was assessed by observing redness and dryness of the graft (Natriano, J. E. et al., J. Immunol., 1996, 153:1505-1514). At a dose of 100 mg/kg I.V., HE-33 prolonged graft survival by approximately 4 days.
C57BL/6 mice were grafted with tail skin from Balb/c mice. Drug treatment
was started two days prior to grafting. Casts were removed on day 6 and
survival of the graft was scored everyday. Rejection was defined on chang
in thickness, dryness and >80% redness of the graft.

`CCCN(CCC)c1ncnc2c1ncn2[C@@H]1O[C@@H]2COP(=O)(O)O[C@H]2[C@H]1O` [HE-33, N^6,N^6 -di-n-Propyl-c-AMP]: the “% Inhibition of IL-4 production” value came out at 0% with IL-4 (24 hours), 87% in the assay on IL-4 (48 hours), 26% in the assay with IL-4 (72 hours) and 25% in the assay on IL-4 (96 hours). Also, the IL-4 production turned out to be 1041 pg/mL in the assay on IL-4 (24 hours), 193 pg/mL with IL-4 (48 hours), 860 pg/mL in the assay on IL-4 (72 hours) and 101 pg/mL in the assay on IL-4 (96 hours). Moreover, the Proliferation came out at 358 CPM in assay [1] (1 μg/mL), 94 CPM in assay [1] (10 μg/mL) and 31 CPM in assay [2] (100 μM). This molecule also yielded an inhibition at 1 µg/mL in assay [1] (Homo sapiens, T-cell, 1 μg/mL) of 65%. The inhibition at 100 µM in assay [2] (Homo sapiens, T-cell) is 97%. Besides, the “Mean Survival Time” value in assay [3] (50 mg/kg (I.V.)) worked out at 10.25 days; in assay [3] (100 mg/kg (I.V.)), 13.4 days; in assay [3] (200 mg/kg (oral)) it was 9.2 days; in assay [3] (400 mg/kg (oral)) it was 9.8 days. Besides, the “Prolongation of graft survival” value in assay [3] (100 mg/kg I.V.) is “approximately 4 days”.

One may read the inhibition as the change of the read-out against control, counted positive when it falls.

These data come from patent US5968912A, “Methods for immunosuppressing” (Immune Modulation, Inc., priority 1997, dated 1999).
